# ChEMBL document CHEMBL1255306, “Potential basis for amphotericin B resistance in Aspergillus terreus” (2008)
# Calls of active or inactive are those of the source. No cut-off for these calls is given here.
# What was measured:
# [1] = test system: Aspergillus fumigatus; test: Antimicrobial activity against […] Aspergillus fumigatus assessed as catalase activity after 24 to 48 hrs; format: functional, organism-based
# [2] = test system: Aspergillus terreus; test: Antimicrobial activity against AMB-resistant Aspergillus terreus assessed as catalase activity after 24 to 48 hrs; format: functional, organism-based
# [3] = test system: Aspergillus terreus; test: Antimicrobial activity against AMB-resistant Aspergillus terreus assessed as high malonaldehyde activity at 5 ug/ml after 8 hrs by thiobarbituric acid test; format: functional, organism-based
# [4] = test system: Aspergillus fumigatus; test: Antimicrobial activity against […] Aspergillus fumigatus assessed as high malonaldehyde activity at 10 ug/ml after 8 hrs by thiobarbituric acid test; format: functional, organism-based
# [5] = test system: Aspergillus terreus; test: Antimicrobial activity against AMB-resistant Aspergillus terreus assessed as high malonaldehyde activity at 10 ug/ml after 8 hrs by thiobarbituric acid test; format: functional, organism-based
# [6] = test system: Aspergillus terreus; test: Antimicrobial activity against Aspergillus terreus protoplast by CLSI M38-A broth microdilution method; format: functional
# [7] = test system: Aspergillus fumigatus; test: Antimicrobial activity against […] Aspergillus fumigatus assessed as high malonaldehyde activity at 5 ug/ml after 8 hrs by thiobarbituric acid test; format: functional, organism-based
# [8] = test system: Aspergillus terreus; test: Antimicrobial activity against Aspergillus terreus conidia by CLSI M38-A broth microdilution method; format: functional
smiles,measurement,setting,value
C[C@@H]1[C@H](O)[C@@H](C)/C=C/C=C/C=C/C=C/C=C/C=C/C=C/[C@H](O[C@@H]2O[C@H](C)[C@@H](O)[C@H](N)[C@@H]2O)C[C@@H]2O[C@](O)(C[C@@H](O)C[C@@H](O)[C@H](O)CC[C@@H](O)C[C@@H](O)CC(=O)O[C@H]1C)C[C@H](O)[C@H]2C(=O)O [AMPHOTERICIN B],Activity,[1],inactive
same,Activity,[2],Active
same,Activity,[3],Active
same,Activity,[4],Active
same,Activity,[5],Active
same,MIC,[6],1.41 µg/mL
same,Activity,[7],Active
same,MIC,[8],1.7 µg/mL
